Measured values from patent US6914045B2, “Glycopeptide antibiotics” (Wyeth Holdings Corporation, priority 2001, dated 2005).
Numbered stars: 1 amine (or outer) side, 2 acyl side, 3 side chain; on linkers, the order of the positions; unused ones are H or OH. Square brackets hold non-standard residues; d marks the D form. Peptide text beside a SMILES is read from it. ξ: configuration not given here. X3 = CC1(C)OCC2OC(N3C(=N)NCC3C(O)C(N[*:1])C(=O)[*:2])C3OC(C)(C)OC3C2O1; ξEnduracididine(βξ-OH,4'ξ) = N=C1NCC(C(O)C(N)C(=O)O)N1; ξPhe(βξ-Me) = CC(c1ccccc1)C(N)C(=O)O

Key:
Assay in all cases: in vitro antibacterial evaluation, MIC by broth dilution
Type in all cases: cell-based
Staphylococcus sp. = details: broth dilution, 18 hours at 35° C.
Procedure, shortened: (§1)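 Broth dilution per NCCLS standard M7-A2 in Muller-Hinton II […], with an inoculum of 5×10^5 CFU/mL and antibiotic spanning 64-0.06 μg/mL. The MIC is the lowest concentration that inhibits growth of the organism.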

Streptococcus sp. = details: broth dilution, 18 hours at 35° C.
Procedure, shortened: as §1

Enterococcus sp. = details: broth dilution, 18 hours at 35° C.
Procedure, shortened: as §1

Escherichia coli = details: 18 hours at 35° C.

CCCCCNC(=O)OCC1OC(OC2C(CO)OC(Oc3ccc(CC4NC(=O)C(C(C)c5ccccc5)NC(=O)CNC(=O)C(CO)NC(=O)C(C(O)C5CNC(=N)N5C5OC(CO)C(O)C(O)C5O)NC(=O)C(C(O)C5CNC(=N)N5)NC4=O)cc3)C(O)C2O)C(O)C(O)C1O (centres unmarked) [Example 251b]
64 µg/mL: MIC Enterococcus avium (GC 4558) (Enterococcus sp.) | MIC Enterococcus faecalis (ATCC 29212) (Enterococcus sp.) | MIC Enterococcus faecalis (GC 4552) (Enterococcus sp.) | MIC Enterococcus faecalis (GC 4553) (Enterococcus sp.) | MIC Enterococcus faecalis (GC 4554) (Enterococcus sp.) | MIC Enterococcus faecium (GC 2243) (Enterococcus sp.) | MIC Enterococcus faecium (GC 4556) (Enterococcus sp.) | MIC Enterococcus faecalis (ATCC 29212) (Enterococcus sp.; strain ATCC 29212) | MIC Enterococcus faecium (GC 2243) (Enterococcus sp.; strain GC 2243) | MIC Enterococcus faecalis (GC 4552) (Enterococcus sp.; strain GC 4552) | MIC Enterococcus faecalis (GC 4553) (Enterococcus sp.; strain GC 4553) | MIC Enterococcus faecalis (GC 4554) (Enterococcus sp.; strain GC 4554) | MIC Enterococcus faecium (GC 4556) (Enterococcus sp.; strain GC 4556) | MIC Enterococcus avium (GC 4558) (Enterococcus sp.; strain GC 4558)
32 µg/mL: MIC Enterococcus faecalis (GC 2242) (Enterococcus sp.) | MIC Enterococcus faecalis (GC 2242) (Enterococcus sp.; strain GC 2242)
4 µg/mL: MIC Coagulase Negative Staphylococcus (GC 4549) (Staphylococcus sp.) | MIC Coagulase Negative Staphylococcus (ID-3941) (Staphylococcus sp.) | MIC Coagulase Negative Staphylococcus (GC 4549) (Staphylococcus sp.; strain GC 4549) | MIC Coagulase Negative Staphylococcus (ID-3941) (Staphylococcus sp.; strain ID-3941) | MIC Streptococcus agalactiae (GC 4564) (Streptococcus sp.) | MIC Streptococcus agalactiae (GC 4564) (Streptococcus sp.; strain GC 4564) | MIC Enterococcus faecium (GC 4557) (Enterococcus sp.) | MIC Enterococcus faecium (GC 4557) (Enterococcus sp.; strain GC 4557)
16 µg/mL: MIC Coagulase Negative Staphylococcus (GC 4551) (Staphylococcus sp.) | MIC Staphylococcus aureus (ATCC 29213) (Staphylococcus sp.) | MIC Staphylococcus aureus (GC 4544) (Staphylococcus sp.) | MIC Staphylococcus aureus (ATCC 29213) (Staphylococcus sp.; strain ATCC 29213) | MIC Staphylococcus aureus (GC 4544) (Staphylococcus sp.; strain GC 4544) | MIC Coagulase Negative Staphylococcus (GC 4551) (Staphylococcus sp.; strain GC 4551)
>64 µg/mL: MIC Escherichia coli (ATCC 25922) (Escherichia coli) | MIC Escherichia coli (GC 4559) (Escherichia coli)
1 µg/mL: MIC Streptococcus pneumoniae (GC 4565) (Streptococcus sp.) | MIC Streptococcus pneumoniae (GC 4565) (Streptococcus sp.; strain GC 4565)
2 µg/mL: MIC Streptococcus pyogenes (ID-3187) (Streptococcus sp.) | MIC Streptococcus pyogenes (ID-3187) (Streptococcus sp.; strain ID-3187) | MIC Escherichia coli (GC 4560) (Escherichia coli)
8 µg/mL: MIC Coagulase Negative Staphylococcus (GC 4547) (Staphylococcus sp.) | MIC Coagulase Negative Staphylococcus (GC 4548) (Staphylococcus sp.) | MIC Staphylococcus aureus (GC 1131) (Staphylococcus sp.) | MIC Staphylococcus aureus (GC 4541) (Staphylococcus sp.) | MIC Staphylococcus aureus (GC 4542) (Staphylococcus sp.) | MIC Staphylococcus aureus (GC 4545) (Staphylococcus sp.) | MIC Staphylococcus aureus-SMITH (GC 4543) (Staphylococcus sp.) | MIC Staphylococcus haemolyticus (GC 4546) (Staphylococcus sp.) | MIC Staphylococcus aureus (GC 1131) (Staphylococcus sp.; strain GC 1131) | MIC Staphylococcus aureus (GC 4541) (Staphylococcus sp.; strain GC 4541) | MIC Staphylococcus aureus (GC 4542) (Staphylococcus sp.; strain GC 4542) | MIC Staphylococcus aureus-SMITH (GC 4543) (Staphylococcus sp.; strain GC 4543) | MIC Staphylococcus aureus (GC 4545) (Staphylococcus sp.; strain GC 4545) | MIC Staphylococcus haemolyticus (GC 4546) (Staphylococcus sp.; strain GC 4546) | MIC Coagulase Negative Staphylococcus (GC 4547) (Staphylococcus sp.; strain GC 4547) | MIC Coagulase Negative Staphylococcus (GC 4548) (Staphylococcus sp.; strain GC 4548)

CC(c1ccccc1)C1NC(=O)CNC(=O)C(CO)NC(=O)C(C(O)C2CNC(=N)N2C2OC3COC(C)(C)OC3C3OC(C)(C)OC32)NC(=O)C(C(O)C2CNC(=N)N2)NC(=O)C(Cc2ccc(O)cc2)NC1=O (stereo not drawn) [Example 247] (cyclo(G[ξPhe(βξ-Me)]Y[ξEnduracididine(βξ-OH,4'ξ)][X3]S); configuration not given here)
>64 µg/mL: MIC Coagulase Negative Staphylococcus (GC 4547) (Staphylococcus sp.) | MIC Coagulase Negative Staphylococcus (GC 4548) (Staphylococcus sp.) | MIC Coagulase Negative Staphylococcus (GC 4549) (Staphylococcus sp.) | MIC Coagulase Negative Staphylococcus (GC 4551) (Staphylococcus sp.) | MIC Coagulase Negative Staphylococcus (GC 6257) (Staphylococcus sp.) | MIC Staphylococcus aureus (ATCC 29213) (Staphylococcus sp.) | MIC Staphylococcus aureus (GC 1131) (Staphylococcus sp.) | MIC Staphylococcus aureus (GC 3051) (Staphylococcus sp.) | MIC Staphylococcus aureus (GC 3053) (Staphylococcus sp.) | MIC Staphylococcus aureus (GC 4541) (Staphylococcus sp.) | MIC Staphylococcus aureus (GC 4542) (Staphylococcus sp.) | MIC Staphylococcus aureus (GC 4544) (Staphylococcus sp.) | MIC Staphylococcus aureus (GC 4545) (Staphylococcus sp.) | MIC Staphylococcus aureus-SMITH (GC 4543) (Staphylococcus sp.) | MIC Staphylococcus haemolyticus (GC 4546) (Staphylococcus sp.) | MIC Streptococcus agalactiae (GC 4564) (Streptococcus sp.) | MIC Streptococcus pneumoniae (ATCC 6301) (Streptococcus sp.) | MIC Streptococcus pneumoniae (GC 1894) (Streptococcus sp.) | MIC Streptococcus pneumoniae (GC 4565) (Streptococcus sp.) | MIC Streptococcus pyogenes (GC 4563) (Streptococcus sp.) | MIC Enterococcus avium (GC 4558) (Enterococcus sp.) | MIC Enterococcus faecalis (ATCC 29212) (Enterococcus sp.) | MIC Enterococcus faecalis (GC 2242) (Enterococcus sp.) | MIC Enterococcus faecalis (GC 2691) (Enterococcus sp.) | MIC Enterococcus faecalis (GC 3059) (Enterococcus sp.) | MIC Enterococcus faecalis (GC 4552) (Enterococcus sp.) | MIC Enterococcus faecalis (GC 4553) (Enterococcus sp.) | MIC Enterococcus faecalis (GC 4554) (Enterococcus sp.) | MIC Enterococcus faecalis (GC 6189) (Enterococcus sp.) | MIC Enterococcus faecium (GC 2243) (Enterococcus sp.) | MIC Enterococcus faecium (GC 4556) (Enterococcus sp.) | MIC Enterococcus faecium (GC 4557) (Enterococcus sp.) | MIC Escherichia coli (ATCC 25922) (Escherichia coli) | MIC Escherichia coli (GC 4559) (Escherichia coli) | MIC Escherichia coli (GC 4560) (Escherichia coli)

COc1ccc(COC2C(CO)OC(OC3C(CO)OC(Oc4ccc(CC5NC(=O)C(C(C)c6ccccc6)NC(=O)CNC(=O)C(CO)NC(=O)C(C(O)C6CNC(=N)N6C6OC(CO)C(O)C(O)C6O)NC(=O)C(C(O)C6CNC(=N)N6)NC5=O)cc4)C(O)C3O)C(O)C2O)cc1OCc1ccccc1 (centres unmarked) [Example 239a]
8 µg/mL: MIC Enterococcus avium (GC 4558) (Enterococcus sp.) | MIC Enterococcus faecalis (ATCC 29212) (Enterococcus sp.) | MIC Enterococcus faecalis (GC 2242) (Enterococcus sp.) | MIC Enterococcus faecalis (GC 2691) (Enterococcus sp.) | MIC Enterococcus faecalis (GC 3059) (Enterococcus sp.) | MIC Enterococcus faecalis (GC 4552) (Enterococcus sp.) | MIC Enterococcus faecalis (GC 4553) (Enterococcus sp.) | MIC Enterococcus faecalis (GC 6189) (Enterococcus sp.) | MIC Enterococcus faecium (GC 2243) (Enterococcus sp.) | MIC Enterococcus faecium (GC 4556) (Enterococcus sp.) | MIC Enterococcus faecalis (ATCC 29212) (Enterococcus sp.; strain ATCC 29212) | MIC Enterococcus faecium (GC 2243) (Enterococcus sp.; strain GC 2243) | MIC Enterococcus faecalis (GC 4552) (Enterococcus sp.; strain GC 4552) | MIC Enterococcus faecalis (GC 4553) (Enterococcus sp.; strain GC 4553) | MIC Enterococcus faecium (GC 4556) (Enterococcus sp.; strain GC 4556) | MIC Enterococcus avium (GC 4558) (Enterococcus sp.; strain GC 4558) | MIC Enterococcus faecalis (GC 6189) (Enterococcus sp.; strain GC 6189) | MIC Enterococcus faecalis (GC 2242) (Enterococcus sp.; inoculum 5×10^5 CFU/mL, strain GC 2242) | MIC Enterococcus faecalis (GC 2691) (Enterococcus sp.; inoculum 5×10^5 CFU/mL, strain GC 2691) | MIC Enterococcus faecalis (GC 3059) (Enterococcus sp.; inoculum 5×10^5 CFU/mL, strain GC 3059)
2 µg/mL: MIC Coagulase Negative Staphylococcus (GC 4547) (Staphylococcus sp.) | MIC Coagulase Negative Staphylococcus (GC 4549) (Staphylococcus sp.) | MIC Coagulase Negative Staphylococcus (GC 4551) (Staphylococcus sp.) | MIC Coagulase Negative Staphylococcus (GC 6257) (Staphylococcus sp.) | MIC Staphylococcus aureus (GC 3051) (Staphylococcus sp.) | MIC Staphylococcus aureus-SMITH (GC 4543) (Staphylococcus sp.) | MIC Staphylococcus haemolyticus (GC 4546) (Staphylococcus sp.) | MIC Staphylococcus aureus (GC 3051) (Staphylococcus sp.; strain GC 3051) | MIC Staphylococcus aureus-SMITH (GC 4543) (Staphylococcus sp.; strain GC 4543) | MIC Staphylococcus haemolyticus (GC 4546) (Staphylococcus sp.; strain GC 4546) | MIC Coagulase Negative Staphylococcus (GC 4547) (Staphylococcus sp.; strain GC 4547) | MIC Coagulase Negative Staphylococcus (GC 4549) (Staphylococcus sp.; strain GC 4549) | MIC Coagulase Negative Staphylococcus (GC 4551) (Staphylococcus sp.; strain GC 4551) | MIC Coagulase Negative Staphylococcus (GC 6257) (Staphylococcus sp.; strain GC 6257) | MIC Streptococcus pyogenes (GC 4563) (Streptococcus sp.) | MIC Streptococcus pyogenes (GC 4563) (Streptococcus sp.; inoculum 5×10^5 CFU/mL, strain GC 4563) | MIC Escherichia coli (GC 4560) (Escherichia coli)
16 µg/mL: MIC Enterococcus faecalis (GC 4554) (Enterococcus sp.) | MIC Enterococcus faecalis (GC 4554) (Enterococcus sp.; strain GC 4554)
<0.06 µg/mL: MIC Streptococcus pneumoniae (GC 1894) (Streptococcus sp.) | MIC Streptococcus pneumoniae (GC 1894) (Streptococcus sp.; inoculum 5×10^5 CFU/mL, strain GC 1894)
4 µg/mL: MIC Staphylococcus aureus (ATCC 29213) (Staphylococcus sp.) | MIC Staphylococcus aureus (GC 1131) (Staphylococcus sp.) | MIC Staphylococcus aureus (GC 3053) (Staphylococcus sp.) | MIC Staphylococcus aureus (GC 4541) (Staphylococcus sp.) | MIC Staphylococcus aureus (GC 4542) (Staphylococcus sp.) | MIC Staphylococcus aureus (GC 4544) (Staphylococcus sp.) | MIC Staphylococcus aureus (GC 4545) (Staphylococcus sp.) | MIC Staphylococcus aureus (ATCC 29213) (Staphylococcus sp.; strain ATCC 29213) | MIC Staphylococcus aureus (GC 1131) (Staphylococcus sp.; strain GC 1131) | MIC Staphylococcus aureus (GC 3053) (Staphylococcus sp.; strain GC 3053) | MIC Staphylococcus aureus (GC 4541) (Staphylococcus sp.; strain GC 4541) | MIC Staphylococcus aureus (GC 4542) (Staphylococcus sp.; strain GC 4542) | MIC Staphylococcus aureus (GC 4544) (Staphylococcus sp.; strain GC 4544) | MIC Staphylococcus aureus (GC 4545) (Staphylococcus sp.; strain GC 4545) | MIC Enterococcus faecium (GC 4557) (Enterococcus sp.) | MIC Enterococcus faecium (GC 4557) (Enterococcus sp.; strain GC 4557)
0.25 µg/mL: MIC Streptococcus pneumoniae (ATCC 6301) (Streptococcus sp.) | MIC Streptococcus pneumoniae (GC 4565) (Streptococcus sp.) | MIC Streptococcus pneumoniae (ATCC 6301) (Streptococcus sp.; inoculum 5×10^5 CFU/mL, strain ATCC 6301) | MIC Streptococcus pneumoniae (GC 4565) (Streptococcus sp.; inoculum 5×10^5 CFU/mL, strain GC 4565)
>64 µg/mL: MIC Escherichia coli (ATCC 25922) (Escherichia coli) | MIC Escherichia coli (GC 4559) (Escherichia coli)
1 µg/mL: MIC Coagulase Negative Staphylococcus (GC 4548) (Staphylococcus sp.) | MIC Coagulase Negative Staphylococcus (GC 4548) (Staphylococcus sp.; strain GC 4548) | MIC Streptococcus agalactiae (GC 4564) (Streptococcus sp.) | MIC Streptococcus agalactiae (GC 4564) (Streptococcus sp.; inoculum 5×10^5 CFU/mL, strain GC 4564)
